The source of these data is article PMC11582173, “Synthesis, cytotoxicity, anti-inflammatory, anti-metastatic and anti-oxidant activities of novel chalcones incorporating 2-phenoxy-N-arylacetamide and thiophene moieties: induction of apoptosis in MCF7 and HEP2 cells” (Naunyn-Schmiedeberg's Archives of Pharmacology, 2024).

Experiment [1] concerns normal African Green monkey kidney cell line (VERO). Kind of experiment: SRB cytotoxic assay, VERO normal cells. The format is cell-based. To be noted: Chlorocebus sabaeus, single dose 100 µg/mL, 48 h, read-out: %Inhibition at100 µg/mL VERO. On the procedure: All the prepared compounds were screened at a concentration of 100 µg/mL against six different human cell lines: human laryngeal carcinoma (HEP2), human colorectal carcinoma (HCT116), human breast carcinoma (MCF7), human Lung carcinoma (A549), human liver carcinoma (HEPG2), and normal African Green monkey kidney cell line (VERO). Doxorubicin was used as a positive control for comparison purposes.
The human laryngeal carcinoma (HEP2), colorectal carcinoma (HCT116), breast carcinoma (MCF7), Lung carcinoma (A549), liver carcinoma (HEPG2), and normal African Green monkey kidney cell line (VERO) were purchased from American Tissue Culture Collection (Rockville, MD, USA). The cells were treated for 48 h with a single dose (100 µg/mL) of all the tested chalcones. […] In brief, the cells were seeded in a 96-well microtiter plate at a concentration of 5×10^3 cells/well in 100 µL fresh RPMI-1640 medium and left to attach to the plates for 24 h. Then, cells were incubated with 100 μL of different concentrations (50, 25, 12.5, 6.25, and 0.0 µg/mL) of 5c in triplicate at 37 °C for 48 h. After that, the cells were fixed with 10 µL cold 100% Trichloroacetic acid (TCA) for 1h at 4 °C. The wells were then washed 1 time with distilled water using (automatic Tecan washer, Germany) and stained for 30 min at room temperature with 50 µL 0.4% SRB dissolved in 1% acetic acid. The plates were air-dried and the dye was solubilized with 100 µl/well of 1M tris base (pH 10.5) for 5 min. The optical density (O.D.) of each well was measured spectrophotometrically at 570 nm with an ELISA microplate reader (Sunrise Tecan reader, Germany) with automatic shaking for 30 seconds before reading. The mean background absorbance was subtracted automatically and mean values for each drug concentration were calculated. The percentage of cell survival was calculated as follows: Survival fraction= O.D. (treated cells)/ O.D. (control cells) (Bhat et al. [2023]).
For orientation: In SRB staining, fixed cells bind dye roughly in proportion to their protein.

In another experiment the test system is KI-67 gene. Description: Real-time PCR, KI-67 gene expression. The settings on record: relative to untreated control (1), normalized to GAPDH. The format is cell-based, human. On the procedure: (§1) The expression level of the following six genes (Ki-67, Survivin, Interleukin-1 beta (IL-1B), Interleukin-6 (IL-6), Cyclooxygenase-2 (COX-2) and protein kinase B (AKT1)) was determined in MCF7 and HEP2 treated with the IC50 of compound 5c. The untreated cells were used as a negative control for comparison purposes. […] Ki-67 is a popular proliferation marker for human tumor cells. […] Survivin is an inhibitor of apoptotic protein (IAP) family member, which is essential for cell division. The lowering of the expression of survivin inhibited tumor development, triggered apoptosis, and made tumor cells more susceptible to radiation and chemotherapy (Albadari and Li [2023]). […] IL-1B is a pleiotropic mediator of inflammation, which is produced in response to a variety of stressors (Aarreberg et al. [2019]). […] IL-6 is a pro-inflammatory cytokine that plays a significant role in the proliferation and differentiation of human cells. It promotes the production of numerous proteins involved in acute inflammation (Uciechowski and Dempke [2020]). […]
(§2) The expression level of the following six genes (Ki-67, survivin, AKT1, IL-6, COX2, and IL-1B) was examined using real-time polymerase chain reaction (qPCR) (Mohamed et al. [2023a]). […] The cycle threshold (Ct) was determined automatically. […]
Background: Quantitative PCR measures a nucleic acid by following its amplification.

Another experiment deals with IL-6 gene. Description: Real-time PCR, IL-6 gene expression. The format is cell-based, human. The settings on record: relative to untreated control (1). On the procedure: as §1, §2
[2] abbreviates: HEP2 cells treated with IC50 of 5c.
The mark [3] stands for this setting: MCF7 cells treated with IC50 of 5c.

Consider `COc1ccc(NC(=O)COc2ccc(C=CC(=O)c3cccs3)cc2)cc1` [Compound 5c, N-(4-Methoxyphenyl)-2-(4-(3-oxo-3-(thiophen-2-yl)prop-1-en-1-yl)phenoxy)acetamide], for which the inhibition at 100 µg/mL in experiment [1] worked out at 58 ± 1.5%. Further, the KI67 expression folding in the experiment with KI-67 gene (setting [2]) was determined as 0.648±0.015 fold; in the experiment on KI-67 gene (setting [3]), 0.352±0.0172 fold. The IL-6 expression folding in the experiment on IL-6 gene (setting [2]) stood at 0.464±0.08 fold; in the experiment with IL-6 gene (setting [3]), 0.814±0.079 fold.
